Reference: patent publication US20260337212A1, “IP4-4,6 SUBSTITUTED DERIVATIVE COMPOUNDS FOR USE IN THE TREATMENT, INHIBITION OF PROGRESSION, AND PREVENTION OF ECTOPIC CALCIFICATION” (SANIFIT THERAPEUTICS, S.A., priority 2022, published 2026)
Where a name gives a salt, the structure may show the parent alone.

test: In vitro inhibition of calcium phosphate crystallization in human plasma (spectrophotometric); assay type: biochemical; settings: 0-100 μM, 1.5 mM phosphate, 12.5 mM calcium, pH 7.4, 30 min, rt, read-out: Relative Potency (EC50, inhibition of calcium phosphate crystallization)
Method: The in vitro efficacy of the IP4-4,6 substituted derivatives (e.g., Compounds 1 to 53) of the invention on the inhibition of calcium phosphate crystallization in human plasma samples was evaluated according to a spectrophotometric assay previously described in the art (Ferrer M, et al., Sci Rep 2017; 7:6858, doi:10.1038/s41598-017-07203-x).
A 96-well plate was employed. Plasma was spiked (1 volume of the IP4-4,6 substituted derivatives of the invention per 19 volumes of plasma) with increasing concentrations of the derivatives in the range of 0-100 μM. Plasma was then centrifuged at 10,000 g at rt and subsequently mixed with a mixture of 5 mM hydrogen phosphate and 41.67 mM calcium to attain final concentrations of 1.5 mM phosphate and 12.5 mM calcium, respectively. All reagent solutions were filtered, and pH adjusted to 7.4.
Crystallization of calcium phosphate was monitored spectrophotometrically for 30 min at rt by measuring the increments in absorbance at 550 nm using the Biotek Powerwave XS Microplate spectrophotometer (BioTek Instruments, Inc., Winooski, VT, US). The plate was incubated at rt in an orbital shaker and absorbance measured every 3 min.
Plasma crystallization was assessed based on slope measurement in the linear range between 6 and 24 min from plots of increase in absorbance versus logarithm of time. The efficacy of different myo-inositol phosphates derivatives in preventing in vitro formation of calcium phosphate crystals was assessed in human plasma samples using the slopes obtained between 6- and 24-min. Inhibition of crystallization was measured by comparing the slopes of the control sample (blank plasma) with those of samples containing the inhibitor as shown below: […]

Compound | EC50 [µM]
4,6-O-(6-(4-carboxy-1H-1,2,3-triazol-1-yl) hexyl)-myo-inositol-1,2,3,5-tetrakis(phosphate) decasodium salt [Compound 40] | ≤ 5
4,6-O-bis(2-(4-acetylpiperazin-1-yl)ethyl)-myo-inositol-1,2,3,5-tetrakis(phosphate) octasodium salt [Compound 34] | 5 to 10
4,6-O-bis(3-(3-phenylureido)propyl)-myo-inositol-1,2,3,5-tetrakis(phosphate) octasodium salt [Compound 46] | 5 to 10
4,6-O-bis(3-(4-(2-carboxyethyl)-1H-1,2,3-triazol-1-yl)propyl)-myo-inositol-1,2,3,5-tetrakis(phosphate) decasodium salt [Compound 35] | ≤ 5
4,6-O-bis(3-(4-(methoxymethyl)-1H-1,2,3-triazol-1-yl)propyl)-myo-inositol-1,2,3,5-tetrakis(phosphate) octasodium salt [Compound 36] | 5 to 10
4,6-O-bis(3-((methoxycarbonyl)amino)propyl)-myo-inositol-1,2,3,5-tetrakis(phosphate) octasodium salt [Compound 24] | > 10
4,6-O-bis(3-methoxypropyl)-myo-inositol-1,2,3,5-tetrakis(phosphate) octasodium salt [Compound 10] | ≤ 5
4,6-O-bis(4-amino-4-oxobutyl)-myo-inositol-1,2,3,5-tetrakis(phosphate) octasodium salt [Compound 26] | ≤ 5
4,6-O-bis(4-methylpentyl)-myo-inositol-1,2,3,5-tetrakis(phosphate) octasodium salt [Compound 21] | > 10
4,6-O-bis(5-(4-(methoxymethyl)-1H-1,2,3-triazol-1-yl) pentyl)-myo-inositol-1,2,3,5-tetrakis(phosphate) octasodium salt [Compound 38] | ≤ 5
4,6-O-bis(5-carboxypentyl)-myo-inositol-1,2,3,5-tetrakis(phosphate) decasodium salt [Compound 18] | ≤ 5
4,6-O-bis(5-methoxypentyl)-myo-inositol-1,2,3,5-tetrakis(phosphate) octasodium salt [Compound 9] | ≤ 5
4,6-O-bis(6,6,6-trifluorohexyl)-myo-inositol-1,2,3,5-tetrakis(phosphate) octasodium salt [Compound 23] | > 10
4,6-O-bis(6-(4-(methoxymethyl)-1H-1,2,3-triazol-1-yl) hexyl)-myo-inositol-1,2,3,5-tetrakis(phosphate) octasodium salt [Compound 39] | ≤ 5
4,6-O-bis(10-carboxydecyl)-myo-inositol-1,2,3,5-tetrakis(phosphate) decasodium salt [Compound 19] | > 10
4,6-O-bis(19-methoxynonadec-10-yn-1-yl)-myo-inositol-1,2,3,5-tetrakis(phosphate) octasodium salt [Compound 20] | ≤ 5
4,6-O-bis((1-(3-methoxypropyl)-1H-1,2,3-triazol-4-yl)methyl)-myo-inositol-1,2,3,5-tetrakis(phosphate) octasodium salt [Compound 32] | ≤ 5
4,6-O-bis((3-(4-carboxybutanamido)propyl))-myo-inositol-1,2,3,5-tetrakis(phosphate) decasodium salt [Compound 45] | ≤ 5

Compound | EC50 [µM]
4,6-O-diheptyl-myo-inositol-1,2,3,5-tetrakis(phosphate) octasodium salt [Compound 5] | ≤ 5
4,6-O-dipropyl-myo-inositol-1,2,3,5-tetrakis(phosphate) octasodium salt [Compound 4] | ≤ 5
CCCCCCCCCCOC1C(OP(=O)(O)O)C(OCCCCCCCCCC)C(OP(=O)(O)O)C(OP(=O)(O)O)C1OP(=O)(O)O (stereo not drawn) [Compound 2, 4,6-O-didecyl-myo-inositol-1,2,3,5-tetrakis(phosphate) octasodium salt] | > 10
O=P(O)(O)OC1C(OCCCCCCCCCCO)C(OP(=O)(O)O)C(OP(=O)(O)O)C(OP(=O)(O)O)C1OCCCCCCCCCCO (stereo not drawn) [Compound 7, 4,6-O-bis(10-hydroxydecyl)-myo-inositol-1,2,3,5-tetrakis(phosphate) octasodium salt] | > 10
COCCCCCCCOC1C(OP(=O)(O)O)C(OCCCCCCCOC)C(OP(=O)(O)O)C(OP(=O)(O)O)C1OP(=O)(O)O (stereo not drawn) [Compound 11, 4,6-O-bis(7-methoxyheptyl)-myo-inositol-1,2,3,5-tetrakis(phosphate) octasodium salt] | > 10
COCCCCCCCCCOC1C(OP(=O)(O)O)C(OCCCCCCCCCOC)C(OP(=O)(O)O)C(OP(=O)(O)O)C1OP(=O)(O)O (stereo not drawn) [Compound 12, 4,6-O-bis(9-methoxynonyl)-myo-inositol-1,2,3,5-tetrakis(phosphate) octasodium salt] | > 10
NCCCOC1C(OP(=O)(O)O)C(OCCCN)C(OP(=O)(O)O)C(OP(=O)(O)O)C1OP(=O)(O)O (stereo not drawn) [Compound 13, 4,6-O-bis(3-aminopropyl)-myo-inositol-1,2,3,5-tetrakis(phosphate) octasodium salt] | 5 to 10
NCCCCCO[C@@H]1[C@@H](OP(=O)(O)O)[C@H](OCCCCCN)[C@@H](OP(=O)(O)O)[C@@H](OP(=O)(O)O)[C@H]1OP(=O)(O)O [Compound 14, 4,6-O-bis(5-aminopentyl)-myo-inositol-1,2,3,5-tetrakis(phosphate) octasodium salt] | ≤ 5
NCCCCCCCCCCO[C@@H]1[C@@H](OP(=O)(O)O)[C@H](OCCCCCCCCCCN)[C@@H](OP(=O)(O)O)[C@@H](OP(=O)(O)O)[C@H]1OP(=O)(O)O [Compound 15, 4,6-O-bis(10-aminodecyl)-myo-inositol-1,2,3,5-tetrakis(phosphate) octasodium salt] | > 10
O=P(O)(O)OC1C(OCCCCCn2cccn2)C(OP(=O)(O)O)C(OP(=O)(O)O)C(OP(=O)(O)O)C1OCCCCCn1cccn1 (stereo not drawn) [Compound 16, 4,6-O-bis(5-(1H-pyrazol-1-yl)pentyl)-myo-inositol-1,2,3,5-tetrakis(phosphate) octasodium salt] | ≤ 5
O=P(O)(O)OC1C(OCCCCCn2cncn2)C(OP(=O)(O)O)C(OP(=O)(O)O)C(OP(=O)(O)O)C1OCCCCCn1cncn1 (stereo not drawn) [Compound 17, 4,6-O-bis(5-(1H-1,2,4-triazol-1-yl)pentyl)-myo-inositol-1,2,3,5-tetrakis(phosphate) octasodium salt] | > 10
O=P(O)(O)O[C@@H]1[C@@H](OCCCC(F)(F)F)[C@H](OP(=O)(O)O)[C@H](OP(=O)(O)O)[C@H](OP(=O)(O)O)[C@H]1OCCCC(F)(F)F [Compound 22, 4,6-O-bis(4,4,4-trifluorobutyl)-myo-inositol-1,2,3,5-tetrakis(phosphate) octasodium salt] | ≤ 5
COC(=O)NCCCCCOC1C(OP(=O)(O)O)C(OCCCCCNC(=O)OC)C(OP(=O)(O)O)C(OP(=O)(O)O)C1OP(=O)(O)O (stereo not drawn) [Compound 25, 4,6-O-bis(5-((methoxycarbonyl)amino)pentyl)-myo-inositol-1,2,3,5-tetrakis(phosphate) octasodium salt] | ≤ 5
O=P(O)(O)OC1C(OCCC2CC2)C(OP(=O)(O)O)C(OP(=O)(O)O)C(OP(=O)(O)O)C1OCCC1CC1 (stereo not drawn) [Compound 28, 4,6-O-bis(2-cyclopropylethyl)-myo-inositol-1,2,3,5-tetrakis(phosphate) octasodium salt] | ≤ 5
O=P(O)(O)O[C@@H]1[C@@H](OCCC2CCCC2)[C@H](OP(=O)(O)O)[C@H](OP(=O)(O)O)[C@H](OP(=O)(O)O)[C@H]1OCCC1CCCC1 [Compound 29, 4,6-O-bis(2-cyclopentylethyl)-myo-inositol-1,2,3,5-tetrakis(phosphate) octasodium salt] | ≤ 5
CCCNC(=O)NCCCCCOC1C(OP(=O)(O)O)C(OCCCCCNC(=O)NCCC)C(OP(=O)(O)O)C(OP(=O)(O)O)C1OP(=O)(O)O (stereo not drawn) [Compound 30, 4,6-O-bis(5-(3-propylureido)pentyl)-myo-inositol-1,2,3,5-tetrakis(phosphate) octasodium salt] | ≤ 5
O=C(O)CCn1cc(CO[C@@H]2[C@@H](OP(=O)(O)O)[C@H](OCc3cn(CCC(=O)O)nn3)[C@@H](OP(=O)(O)O)[C@@H](OP(=O)(O)O)[C@H]2OP(=O)(O)O)nn1 [Compound 31, 4,6-O-bis((1-(2-carboxyethyl)-1H-1,2,3-triazol-4-yl)methyl)-myo-inositol-1,2,3,5-tetrakis(phosphate) decasodium salt] | ≤ 5
COCCCCCCn1cc(COC2C(OP(=O)(O)O)C(OCc3cn(CCCCCCOC)nn3)C(OP(=O)(O)O)C(OP(=O)(O)O)C2OP(=O)(O)O)nn1 (stereo not drawn) [Compound 33, 4,6-O-bis((1-(6-methoxyhexyl)-1H-1,2,3-triazol-4-yl)methyl)-myo-inositol-1,2,3,5-tetrakis(phosphate) octasodium salt] | 5 to 10
